Measurements: the OPERA property sets (Mansouri et al. 2018)
Non-standard residues stand in square brackets, D forms with d. Residues, ends and D or L forms follow the SMILES beside them.

Nc1ccc(C(=O)O)c(O)c1
logP: 0.89

NC(=S)c1ccc([N+](=O)[O-])cc1
logP: 1.75

CCCNC(=O)CCn1ccc(=O)c(O)c1C
logP: -0.4

CCn1cc(C(=O)O)c(=O)c2cc3c(cc21)OCO3
logP: 0.94

CCOP(=O)(OCC)OC(=CCl)c1ccc(Cl)cc1Cl
logP: 3.81

Nc1c(Cl)c(Cl)cc(Cl)c1Cl
logP: 4.1

Cc1c(O)c(=O)ccn1CCC(=O)NC(C)C
logP: -0.47

OC1CCN(Cc2cccc(COc3ccccc3)c2)CC1
logP: 2.77

O=c1[nH]c(=O)n(C2OC(CO)CC2F)cc1Cl (stereo unspecified)
logP: -0.28

CC(C)(C)C(COc1ccc(F)cc1)OC(=S)n1ccnc1 (stereo unspecified)
logP: 4.37

Cc1nn(-c2ccccc2)c(Nc2ccc(C(F)(F)F)cc2)c1[N+](=O)[O-]
logP: 3.89

CCCCCCCC(=O)N[C@@H]1C(=O)N2[C@@H]1SC(C)(C)[C@@H]2C(=O)O
logP: 3.32

CCOC(=O)C1=CNC2CCCCN2C1=O (stereo unspecified)
logP: 0.57

Cc1nn(-c2ccccc2)c(Nc2ccc([N+](=O)[O-])cc2)c1[N+](=O)[O-]
logP: 2.78

CNc1cnn(-c2ccccc2)c(=O)c1Cl
logP: 1.19

CCc1c(O)c(=O)ccn1C(C)C
logP: 0.73

Oc1c(Cl)cc(Cl)c(Cl)c1O
logP: 3.6

CCOP(=O)(OCC)Oc1ccc([N+](=O)[O-])cc1
logP: 1.98

CNC(=O)c1cccc(Oc2cc(C)ccc2C)c1
logP: 3.76

COC(=O)c1cnc2n(c1=O)CCCC2
logP: -0.25

O=C(O)c1cc(I)ccc1O
logP: 3.34

CC(=O)N1CCCC1=O
logP: -0.05

COc1ccc(CON2C(=O)CC3(CCCC3)C2=O)cc1
logP: 2.23

CCCCCC(C)N (stereo unspecified)
logP: 2.4

Cc1ccc2c(c1)C1CN(C)CCC1N2C(=O)C=Cc1ccccc1 (stereo unspecified)
logP: 3.49

CSc1ncnc2c1ncn2[C@@H]1O[C@H](CO)[C@@H](O)[C@H]1O
logP: 0.09

CCC(CC)(C(=O)NC(N)=O)C(=O)OCC(=O)OC
logP: 0.99

CS(=O)(=O)c1ccc(OCC(=O)O)cc1
logP: 0.06

NS(=O)(=O)c1ccc(Cl)cc1
logP: 1.15

O=C(Nc1ccn(C2CC(O)C(CO)O2)c(=O)n1)c1ccccc1 (stereo unspecified)
logP: 0.67

Nn1c(S)nnc(-c2cc(Cl)cc(Cl)c2)c1=O
logP: 2.67

O=C(O)CCCCCOc1cccc2ccccc12
logP: 4.5

NCC1(CC(=O)O)CCCCC1
logP: -1.1

CCCCCCn1ccc(=O)c(O)c1CC
logP: 2.28

O=c1[nH]c(=O)n(Cc2ccccc2)cc1F
logP: 0.89

CN(C)C=C1OC(=O)C(C#N)=C1c1ccccc1
logP: 1.07

Nc1cc([N+](=O)[O-])ccc1O
logP: 1.26

CN1C(=O)NC(c2ccccc2)(c2ccccc2)C1=O
logP: 2.28

N=C(NCC#CCC(NC(=O)C(Cc1ccc2ccccc2c1)Cc1cccc2ccccc12)C(=O)NC(CC1CCCCC1)C(O)CC(=O)NCCN1CCOCC1)N[N+](=O)[O-] (stereo unspecified)
logP: 4.73

CCN1C(=O)NC(Cc2ccccc2)C1=O (stereo unspecified)
logP: 1.61

CCc1nc2cccc(C)n2c(=O)c1C
logP: 1.87

Clc1ccccc1
logP: 2.84

CCc1c(O)c(=O)ccn1CC
logP: 0.25

OC[C@@H](O)[C@@H](O)[C@H](O)[C@@H](O)CO
logP: -2.2

CN1CC(O)CN(C)C1=Nc1ncc([N+](=O)[O-])s1 (stereo unspecified)
logP: 0.16

CCOc1ccc(OCC(OC(=S)n2ccnc2)C(C)(C)C)cc1 (stereo unspecified)
logP: 4.58

NS(=O)(=O)c1cc2c(cc1Cl)NC(C(F)(F)F)NS2(=O)=O (stereo unspecified)
logP: 0.49

CC(C)(C)C(COc1ccc(-c2ccccc2)cc1)OC(=S)n1ccnc1 (stereo unspecified)
logP: 6.06

NC(=O)OC1c2ccccc2C2CCCCC2C1OC(N)=O (stereo unspecified)
logP: 2.17

COC(=O)c1cnc2n(c1=O)C(C)CCC2 (stereo unspecified)
logP: 0.16

Clc1cc(Cl)cc(-c2cc(Cl)cc(Cl)c2)c1
logP: 6.6

CC(N)C(=O)O (stereo unspecified)
logP: -2.85

CC(=O)O[C@H]1[C@@H](OC(C)=O)C[C@H](O[C@@H]2C(C)O[C@@H](O[C@H]3[C@@H](OC(C)=O)C[C@H](O[C@H]4CC[C@@]5(C)[C@H](CC[C@@H]6[C@@H]5CC[C@]5(C)[C@@H](C7=CC(=O)OC7)[C@@H](OC(C)=O)C[C@]65O)C4)O[C@@H]3C)C[C@@H]2OC(C)=O)O[C@@H]1C (stereo partly specified)
logP: 3.46

O=C(O)Cn1nnc2ccccc21
logP: -1.88

CC(C)c1ccc(OCC(OC(=O)n2ccnc2)C(C)(C)C)cc1 (stereo unspecified)
logP: 4.77

CCC1(CC)C(=O)NCC(C)C1=O (stereo unspecified)
logP: 0.78

O=[N+]([O-])c1cnc(-c2ccc(F)cc2)n1CCO
logP: 1.33

O=C1NC(=O)C(Cc2ccccc2)(Cc2ccccc2)N1
logP: 2.46

CCc1ncc([N+](=O)[O-])n1CCNC(=S)OC
logP: 1.46

CCOC(=O)C1(c2ccccc2)CCN(C)CC1
logP: 2.72

CCNc1nc(C)c(C(=O)CCN(C)C)s1
logP: 2.21

CCOC(=O)c1cnc2n(c1=O)CCCC2
logP: 0.15

CC1CCCc2ncc(C(N)=O)c(=O)n21 (stereo unspecified)
logP: 0.04

CCOP(=O)(O)Cc1ccc(Cl)cc1
logP: 1.6

CNc1nc(C)c(C(=O)CCN2CCOCC2)s1
logP: 0.95

N=C(N)NN=Cc1ccc(Cl)c([N+](=O)[O-])c1
logP: 0.53

O=C(c1c(F)c(F)c(F)c(F)c1F)c1ccc2n1CCC2C(=O)O (stereo unspecified)
logP: 3.24

CCN(CC)C(=O)CCn1ccc(=O)c(O)c1C
logP: -0.36

CCNP(=O)(OCC)ON=C(C#N)c1ccc(OC)cc1 (stereo unspecified)
logP: 2.39

O=c1[nH]c(=O)n(C2OC(CO)CC2F)cc1F (stereo unspecified)
logP: -0.72

O=[N+]([O-])c1c(Cl)c(Cl)c(Cl)c(Cl)c1Cl
logP: 4.64

O=C(Cc1cccnc1)NN1CC=CCC1
logP: 0.05

Cc1ccc(C)c(Oc2cccc(C(=O)NC(C)(C)C)c2)c1
logP: 4.78

COC(=O)Nc1nc2cc(C(=O)c3ccccc3)ccc2n1C(=O)OC
logP: 2.47

CN(c1ccccc1)S(C)(=O)=O
logP: 1.02

CN1CC(=O)N(c2ccccc2)C1=O
logP: 0.14

CCC(=O)O[C@]1(C(=O)CCl)[C@@H](C)C[C@H]2[C@@H]3CCC4=CC(=O)C=C[C@]4(C)[C@@]3(F)[C@@H](O)C[C@@]21C
logP: 3.5

Cn1c(S)nnc(-c2ccc(OC(F)(F)F)c(Cl)c2)c1=O
logP: 3.61

CC(n1ccnc1)C(O)(c1ccc(F)cc1)c1ccc(F)cc1 (stereo unspecified)
logP: 3.13

NS(=O)(=O)c1cc2c(cc1Cl)NC(C(Cl)Cl)NS2(=O)=O (stereo unspecified)
logP: 0.62

COC(=O)c1c(C)[nH]c(-c2cc(Cl)ccn2)c1C(=O)OC
logP: 2.63

Cc1c(F)c(F)c(C(=O)O)c(F)c1F
logP: 3.15

CC(C)(C)C(COc1ccccc1)OC(=S)n1ccnc1 (stereo unspecified)
logP: 4.27

CCCc1ccc(OCC(OC(=O)n2ccnc2)C(C)(C)C)cc1 (stereo unspecified)
logP: 4.73

CC=COCC(O)Cn1ccnc1[N+](=O)[O-] (stereo unspecified)
logP: 0.28

Cc1ncc(OP(=O)(O)O)c(CO)c1O
logP: -0.64

CCOP(=O)(OCC)SCS(=O)C(C)(C)C (stereo unspecified)
logP: 2.66

CCOC(=O)c1cnc2n(c1=O)CC(C)CC2 (stereo unspecified)
logP: 0.71

O=C(O)c1cc(O)nc(O)n1
logP: -0.83

O=C1CN=C(c2ccccn2)c2cc(Br)ccc2N1
logP: 2.05

CC1c2nc3ccccc3c(=O)n2CN1CCO (stereo unspecified)
logP: 0.46

CCNP(=O)(OCC)ON=C(C#N)c1ccc([N+](=O)[O-])cc1 (stereo unspecified)
logP: 1.76

CCCCCCCCN(C)N=Nc1[nH]cnc1C(N)=O
logP: 3.22

N#Cc1ccc(Cl)cc1
logP: 2.47

Cc1cc(O)ccc1O
logP: 0.91

COC(=O)NC1=NCC(c2ccccc2Cl)N1C (stereo unspecified)
logP: 2.08

COc1ccc(Cn2cc(F)c(=O)[nH]c2=O)cc1
logP: 1.04

C=C1C(=O)OC2C1C(O)CC(C)C1CCC(=O)C12C (stereo unspecified)
logP: 0.23

Cc1ccccc1C(=O)CCN1CCCCC1
logP: 3.54

CC1c2cccc(O)c2C(=O)C2=C(O)C3(O)C(=O)C(C(N)=O)=C(O)C(N(C)C)C3C(O)C21 (stereo unspecified)
logP: -0.02

Cn1nnnc1SCC1=C(C(=O)O)N2C(=O)[C@@H](NC(=O)[C@H](O)c3ccccc3)[C@H]2SC1
logP: 0.5

CNc1nnc(-c2cc(Cl)cc(Cl)c2)c(=O)n1N
logP: 1.91

O=c1[nH]c(=S)ccn1[C@H]1CC[C@@H](CO)O1
logP: -0.21

OCCN(CCO)CCCc1ccc(CSc2ccccc2)cc1
logP: 3.31

O=C(OCC1OC(n2cc(I)c(=O)[nH]c2=O)CC1O)c1ccc([N+](=O)[O-])cc1 (stereo unspecified)
logP: 1.24

CCCC(=O)OCn1cc2c(=O)[nH]cnc2n1
logP: 0.33

FC(F)(F)c1nc2c(Cl)c(Cl)c(Cl)cc2[nH]1
logP: 3.87

CCOCCCn1ccc(=O)c(O)c1CC
logP: 0.72

CC(=O)OCC1=C(C(=O)O)N2C(=O)[C@@H](NC(=O)CSc3ccncc3)[C@H]2SC1
logP: -1.15

Cc1ccc(Cl)c(NS(=O)(=O)c2nc(C)n(-c3ccccc3)n2)c1Cl
logP: 4.4

O=C(O)COc1cc(Cl)cc(Cl)c1
logP: 2.84

C[C@@H]1O[C@@H](O[C@H]2C[C@@H](O)[C@]3(CO)[C@H]4[C@H](O)C[C@]5(C)[C@@H](C6=CC(=O)OC6)CC[C@]5(O)[C@@H]4CC[C@]3(O)C2)[C@H](O)[C@H](O)[C@H]1O
logP: -2

COc1ncnc2c1ncn2C1OC(CO)C(OC(=O)C(C)(C)C)C1OC(=O)C(C)(C)C (stereo unspecified)
logP: 3.61

Cc1onc(-c2ccccc2Cl)c1C(=O)NC1C(=O)N2C1S(=O)C(C)(C)C2C(=O)O (stereo unspecified)
logP: 2

CCCCCCCCn1ccc(=O)c(O)c1C
logP: 2.88

C=CC(=O)OCCOCCOCCOCCOC(=O)C=C
logP: 1.26

CCOC(=O)OCn1cc(F)c(=O)[nH]c1=O
logP: -0.04

COC(=O)c1ccccc1S(=O)(=O)NC(=O)Nc1nc(C)nc(OC)n1
logP: 2.2

CC1(C)S[C@@H]2[C@H](NC(=O)[C@H](N)c3ccccc3)C(=O)N2[C@H]1C(=O)O
logP: 1.35

CC(=O)N[C@H](Cc1ccccc1)C(=O)N[C@H](Cc1ccccc1)C(N)=O (Ac-[dF]-[dF]-NH2)
logP: 1.19

C=CC12COC(=O)C(=C)C1C1OC(=O)C(=C)C1C(OC(=O)C(=C)C)C2 (stereo unspecified)
logP: 1.56

CCC(C)(C)c1ccc(CC(=O)O)cc1
logP: 3.48

CNC(=C[N+](=O)[O-])NCCSCc1nc[nH]c1C
logP: -0.4

CCCCCN(C)C(=O)c1cccc(Oc2ccccc2)c1
logP: 4.43

Clc1ccc(C(c2ccc(Cl)cc2)C(Cl)Cl)cc1
logP: 6.02

CCC1(c2ccccc2)C(=O)NC(=O)N1S(=O)(=O)c1ccccc1 (stereo unspecified)
logP: 2.44

NC(=O)Nc1ccc(Cl)c(Cl)c1
logP: 2.65

CCOC(=O)c1cnc2n(c1=O)CCC(C)C2 (stereo unspecified)
logP: 0.66

Nc1c(Cl)cc(Cl)cc1Cl
logP: 3.52

O=c1[nH]c(=S)ccn1[C@H]1C=C[C@@H](CO)O1
logP: -0.28

Nc1cccc(Cl)c1Cl
logP: 2.82
